“Also recorded” adds a separate entry of the source. Where two headings read alike, the source gives them in different places. Values belong to the molecule of their own block, whether it stands above or below them.
What was measured:
Androgen Receptor [1] = target: T1, Androgen Receptor (Homo sapiens, UniProt P10275); assay: Androgen Receptor ELISA assay (PathScan AR ELISA) in VCaP cells: AR degradation, Dmax and DC50; type: cell-based; conditions: for DC50: read-out: VCaP DC50; for Dmax: VCaP, read-out: VCaP Dmax (%)
T1 construct: endogenous in cells; host or cells: VCaP cells
T1 sequence (P10275 1-920): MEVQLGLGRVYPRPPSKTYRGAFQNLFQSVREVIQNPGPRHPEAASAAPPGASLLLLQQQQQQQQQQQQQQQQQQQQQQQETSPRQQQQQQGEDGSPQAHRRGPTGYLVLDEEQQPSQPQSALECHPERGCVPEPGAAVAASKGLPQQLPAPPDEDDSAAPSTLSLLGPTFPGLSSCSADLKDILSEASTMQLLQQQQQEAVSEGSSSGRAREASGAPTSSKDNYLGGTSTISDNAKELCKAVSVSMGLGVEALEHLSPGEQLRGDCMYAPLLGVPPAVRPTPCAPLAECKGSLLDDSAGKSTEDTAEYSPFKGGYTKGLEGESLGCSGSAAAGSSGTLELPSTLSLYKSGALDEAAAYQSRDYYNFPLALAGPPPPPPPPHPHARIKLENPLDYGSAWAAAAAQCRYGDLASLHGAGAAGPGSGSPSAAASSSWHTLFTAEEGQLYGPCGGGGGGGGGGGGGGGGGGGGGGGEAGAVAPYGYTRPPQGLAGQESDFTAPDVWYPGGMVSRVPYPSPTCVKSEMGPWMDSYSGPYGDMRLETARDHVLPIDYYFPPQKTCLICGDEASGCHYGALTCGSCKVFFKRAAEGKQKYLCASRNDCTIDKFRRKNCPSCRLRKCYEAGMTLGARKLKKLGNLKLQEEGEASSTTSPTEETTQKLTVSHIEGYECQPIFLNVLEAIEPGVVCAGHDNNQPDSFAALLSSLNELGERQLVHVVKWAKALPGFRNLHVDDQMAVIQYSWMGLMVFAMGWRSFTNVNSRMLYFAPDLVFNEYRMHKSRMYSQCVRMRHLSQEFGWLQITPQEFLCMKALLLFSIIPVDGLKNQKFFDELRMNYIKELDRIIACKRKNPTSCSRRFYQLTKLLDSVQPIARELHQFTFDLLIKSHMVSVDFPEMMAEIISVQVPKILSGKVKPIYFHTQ
Outline: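 VCaP cells in phenol red-free RPMI with 5% charcoal-stripped FBS were grown at least 3 days, then given compound as 7 half-log doses in 0.1% DMSO with 0.1 nM R1881 for 24 h. Lysates went into a sandwich AR ELISA with TMB read at 450 nm.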

[2] = PROTAC prodrug oral pharmacokinetics in CD-1 mice; type: in vivo; conditions: male, mouse, plasma, 10 mg/kg, 10 mpk PO; for AUC: read-out: Plasma Exposure Prodrug AUC; for Cmax: read-out: Plasma Exposure Prodrug Cmax
Experimental: (§1) 9. PROTAC Prodrug Oral Pharmacokinetics and PROTAC Subcutaneous Phamacokinetics.
(§2) Representative Pharmacokinetic Procedure
(§3) Male CD-1 mice (6-8 weeks old, weighing 20-30 g, 3 per study) with free access to food and water were administered with the test article at 10 mg/kg either by oral gavage or sub-cutaneous injection in the formulation specified in tables 20 and 21, at 10 mL/kg.
(§4) Approximately 0.04 mL blood samples were collected from the dorsal metatarsal vein serially at 0.25, 0.5, 1, 2, 4, 8 and 24 h timepoints; heparin was used as the anticoagulant. The samples were centrifuged at 4000 g for 5 min at 4° C. then stored at −75° C. prior to analysis.
(§5) The plasma samples were analysed via an LC/MS/MS method quantitating for unchanged, administered test article, and/or a derivative species as appropriate. WinNonlin (Phoenix™) was used for the pharmacokinetic calculations and modeling, to generate parameters such as Cmax and AUC.

Androgen Receptor [3] = target: T2, Androgen Receptor (Homo sapiens, UniProt P10275+P40337, T878A); assay: Androgen Receptor ELISA assay (PathScan AR ELISA) in LNCaP cells: AR degradation, Dmax and DC50; type: cell-based
T2 construct: Compounds have been evaluated in this assay in LNCaP and/or VCaP cells utilizing similar protocols; endogenous in cells; host or cells: LNCaP cells
T2 sequence (P10275 whole entry T878A): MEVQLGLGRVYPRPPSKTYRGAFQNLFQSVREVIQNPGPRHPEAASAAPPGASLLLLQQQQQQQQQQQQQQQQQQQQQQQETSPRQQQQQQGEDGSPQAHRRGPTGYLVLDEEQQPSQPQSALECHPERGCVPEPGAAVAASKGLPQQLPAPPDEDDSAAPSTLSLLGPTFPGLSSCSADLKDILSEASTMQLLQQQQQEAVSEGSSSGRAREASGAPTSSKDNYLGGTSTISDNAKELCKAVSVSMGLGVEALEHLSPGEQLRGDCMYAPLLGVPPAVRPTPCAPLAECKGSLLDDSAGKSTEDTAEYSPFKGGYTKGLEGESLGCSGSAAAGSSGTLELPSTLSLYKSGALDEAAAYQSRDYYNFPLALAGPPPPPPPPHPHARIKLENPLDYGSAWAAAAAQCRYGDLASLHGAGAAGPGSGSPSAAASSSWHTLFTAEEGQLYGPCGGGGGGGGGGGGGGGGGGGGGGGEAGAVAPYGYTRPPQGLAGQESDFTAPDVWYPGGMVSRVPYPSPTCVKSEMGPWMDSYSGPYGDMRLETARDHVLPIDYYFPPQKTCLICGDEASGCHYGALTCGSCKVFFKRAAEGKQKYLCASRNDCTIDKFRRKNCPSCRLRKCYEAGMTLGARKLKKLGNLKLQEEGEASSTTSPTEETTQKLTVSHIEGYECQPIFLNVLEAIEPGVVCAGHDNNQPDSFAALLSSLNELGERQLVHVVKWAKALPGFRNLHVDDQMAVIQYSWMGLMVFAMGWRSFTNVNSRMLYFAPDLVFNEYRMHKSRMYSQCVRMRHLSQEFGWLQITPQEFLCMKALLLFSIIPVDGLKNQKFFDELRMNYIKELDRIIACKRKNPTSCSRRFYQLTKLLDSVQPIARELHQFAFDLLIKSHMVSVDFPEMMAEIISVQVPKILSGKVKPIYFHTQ
T2 sequence (P40337 whole entry): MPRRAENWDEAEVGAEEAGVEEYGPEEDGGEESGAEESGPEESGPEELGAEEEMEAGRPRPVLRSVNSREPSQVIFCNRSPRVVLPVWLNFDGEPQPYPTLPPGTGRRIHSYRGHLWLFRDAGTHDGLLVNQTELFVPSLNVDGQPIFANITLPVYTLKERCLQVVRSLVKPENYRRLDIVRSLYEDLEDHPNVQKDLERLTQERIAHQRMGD
T2 sequence (Q15369 whole entry partner): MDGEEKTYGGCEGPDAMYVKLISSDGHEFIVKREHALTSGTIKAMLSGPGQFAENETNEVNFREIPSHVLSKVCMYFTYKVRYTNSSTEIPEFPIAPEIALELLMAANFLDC
T2 sequence (Q15370 whole entry partner): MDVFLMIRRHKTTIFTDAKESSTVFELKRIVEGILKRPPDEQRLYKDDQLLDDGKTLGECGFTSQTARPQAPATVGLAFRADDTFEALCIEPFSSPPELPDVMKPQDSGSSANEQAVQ

[4] = test system: LNCaP cells transduced with AR F876L construct; assay: Anti-proliferation in LNCaP F876L (CellTiterGlo); type: cell-based; conditions: Charcoal Stripped Serum media, indicated doses for 7 days
Experimental: FIG. 3. Anti-proliferation in LNCaP F876L. […] LNCaP cells transduced with AR F876L construct were cultured in Charcoal Stripped Serum containing media.
4. Anti-Proliferation in LNCaP F876L.
LNCaP cells transduced with AR F876L construct were cultured in Charcoal Stripped Serum containing media. […] CellTiterGlo reagent (Promega) was employed to assess proliferation.

AR = target: T3, AR (Homo sapiens, UniProt P10275+P40337, T878A); assay: AR degradation of PROTAC is E3 ligase dependent (LNCaP cells); type: cell-based
T3 construct: Compounds have been evaluated in this assay in LNCaP and/or VCaP cells utilizing similar protocols; endogenous in cells; host or cells: LNCaP cells
T3 sequence (P10275 whole entry T878A): as the sequence (P10275 whole entry T878A) above
T3 sequence (P40337 whole entry): as the sequence (P40337 whole entry) above
T3 sequence (Q15369 whole entry partner): as the sequence (Q15369 whole entry partner) above
T3 sequence (Q15370 whole entry partner): as the sequence (Q15370 whole entry partner) above
Source text: FIG. 7A and FIG. 7B. AR degradation of PROTAC is E3 ligase dependent.
8. AR Degradation of PROTAC is E3 Ligase Dependent.

[5] = PROTAC subcutaneous pharmacokinetics in CD-1 mice; type: in vivo; conditions: male, plasma, CD-1 Mouse, 10 mg/kg SC dose, vehicle ESD-1; for AUC(0-t): read-out: Plasma Exposure AUC0-24; for Cmax: read-out: Plasma Exposure Cmax
Experimental: as §1, §2, §3, §4, §5

VCaP cells = assay: VCaP cell proliferation assay (Cell Titer Glo), GI50; type: cell-based; conditions: for GI50: Homo sapiens, VCaP cells, 0.1 nM R1881, Table 37, read-out: GI50, Inhibition of VCaP Proliferation
Outline: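 VCaP cells at 7,500/well were androgen-depleted for at least 3 days in phenol red-free RPMI with 5% charcoal-stripped FBS, then dosed with PROTACs plus 0.1 nM R1881. Growth was read by CellTiter Glo luminescence against a baseline taken on the day of dosing, giving GI50.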

VCaP xenograft = assay: Tumor growth inhibition in VCaP xenograft model; type: in vivo; conditions: VCaP cells s.c. in castrated CB17 scid mice; enzalutamide PO, QD, 30 mpk; Example 163 IP, QD, 30, 10 and 3 mpk
Source text: FIG. 6. Tumor growth inhibition in VCaP xenograft model. VCaP cells were implanted into CB17 scid mice subcutaneously. Once the tumors were palpable, the mice were castrated, leading to temporary tumor stasis.
7. Tumor Growth Inhibition in VCaP Xenograft Model.
VCaP cells were implanted into CB17 scid mice subcutaneously. Once the tumors were palpable, the mice were castrated, leading to temporary tumor stasis.

C57B6 mouse model = assay: Prostate involution in C57B6 mouse model; type: in vivo; conditions: 12-week old male C57BL/6 mice; IP, QD, 1 and 3 mpk; 10 days
Source text: FIG. 5. Prostate involution in C57B6 mouse model.
6. Prostate Involution in C57B6 Mouse Model.

[6] = vehicle ESP-4, prodrug measured
[7] = highest percentage of Androgen Receptor degradation observed, VCaP cells (Table 32)
[8] = concentration that caused 50% Androgen Receptor degradation, VCaP cells (Table 32)
[9] = vehicle ESD-4, prodrug measured

Compound: Cc1ncsc1-c1ccc([C@H](C)NC(=O)[C@@H]2C[C@@H](O)CN2C(=O)[C@@H](NC(=O)COCCCCCNc2ccc(C(=O)N[C@H]3C(C)(C)[C@H](Oc4ccc(C#N)c(C(F)(F)F)n4)C3(C)C)cc2)C(C)(C)C)cc1 [Example 464]
DC50 (Androgen Receptor [1]; VCaP cells, Table 35): > 501 nM
Dmax (Androgen Receptor [1]; VCaP cells, Table 35): > 71%
AUC [2, 6]: 118 ng·h/mL
Cmax [2, 6]: 48 ng/mL

Compound: Cc1ncsc1-c1ccc(CNC(=O)[C@@H]2C[C@@H](O)CN2C(=O)[C@@H](NC(=O)COCCCOCCCCCOc2ccc(N3C(=S)N(c4ccc(C#N)c(C(F)(F)F)c4)C(=O)C3(C)C)cc2)C(C)(C)C)cc1 [Example 1, (2S,4R)-1-((S)-2-(2-(3-(5-(4-(3-(4-cyano-3-(trifluoromethyl)phenyl)-5,5-dimethyl-4-oxo-2-thioxoimidazolidin-1-yl)phenoxy)pentyloxy)propoxy)acetamido)-3,3-dimethylbutanoyl)-4-hydroxy-N-(4-(4-methylthiazol-5-yl)benzyl)pyrrolidine-2-carboxamide]
Dmax (Androgen Receptor [1]): 51 to 70%
DC50 (Androgen Receptor [1]; concentration that caused 50% Androgen Receptor degradation, VCaP cells): < 50 nM
DC50 (Androgen Receptor [3]; concentration that caused 50% Androgen Receptor degradation): < 50 nM
Dmax (Androgen Receptor [3]; highest percentage of Androgen Receptor degradation observed): > 71%
proliferation / agonist activity in LNCaP F876L cells [4]: did not exhibit agonist activity; also recorded: Anti-proliferation in LNCaP F876L cells observed
AR degradation activity in the presence of VHL E3 ligase ligand compound B (AR; 24 hours, 10 uM compound B): greatly diminishes the AR degradation activity
degradation of AR (AR; PROTAC versus inactive epimer analog unable to bind VHL E3 ligase): significant degradation of AR
AUC(0-t) [5]: 15600 ng·h/mL
Cmax [5]: 1150 ng/mL

Compound: CNC(=O)c1ccc(N2C(=S)N(c3ccc(C#N)c(C(F)(F)F)c3)C(=O)C2(C)C)cc1F [enzalutamide, reference compound]
anti-proliferative activity (VCaP cells; LNCap and VCaP cell systems, increasing concentrations of AR agonist R1881 and cells containing the AR F876L mutation): inactive
Tumor growth inhibition (VCaP xenograft): Tumor growth inhibition was observed

Compound: Cc1ncsc1-c1ccc(CNC(=O)[C@@H]2C[C@@H](O)CN2C(=O)[C@@H](NC(=O)COCCCCOc2ccc(C(=O)N[C@H]3C(C)(C)[C@H](Oc4ccc(C#N)c(Cl)c4)C3(C)C)cc2)C(C)(C)C)cc1 [Example 163, (2S,4R)-1-[(2S)-3,3-dimethyl-2-{2-[4-(4-{[trans-3-(3-chloro-4-cyanophenoxy)-2,2,4,4-tetramethylcyclobutyl]carbamoyl}phenoxy)butoxy]acetamido}butanoyl]-4-hydroxy-N-{[4-(4-methyl-1,3-thiazol-5-yl)phenyl]methyl}pyrrolidine-2-carboxamide]
Dmax (Androgen Receptor [1]; [7]): > 71%
DC50 (Androgen Receptor [1]; [8]): < 50 nM
GI50 (VCaP cells): ≤ 50 nM
prostate weights (prostate involution) (C57B6 mouse model): significant reduction in prostate weights; also recorded: significant prostate involution
Tumor growth inhibition (VCaP xenograft): Tumor growth inhibition was observed

Compound: Cc1ncsc1-c1ccc([C@H](C)NC(=O)[C@@H]2C[C@@H](OC(=O)[C@@H](N)C(C)C)CN2C(=O)[C@@H](NC(=O)COCCCCCNc2ccc(C(=O)N[C@H]3C(C)(C)[C@H](Oc4ccc(C#N)c(Cl)c4)C3(C)C)cc2)C(C)(C)C)cc1 [Example 463]
AUC [2, 6]: 49 ng·h/mL
Cmax [2, 6]: 12 ng/mL

Further lines, results first:

DC50 (Androgen Receptor [1]; VCaP cells, Table 35): < 50 nM
Dmax (Androgen Receptor [1]; VCaP cells, Table 35): > 71%
AUC [2, 6]: 469 ng·h/mL
Cmax [2, 6]: 346 ng/mL
Compound: Cc1ncsc1-c1ccc([C@H](CN(C)C)NC(=O)[C@@H]2C[C@@H](O)CN2C(=O)[C@@H](NC(=O)COCCCCCOc2ccc(C(=O)N[C@H]3C(C)(C)[C@H](Oc4ccc(C#N)c(Cl)c4)C3(C)C)cc2)C(C)(C)C)cc1 [Example 470]

DC50 (Androgen Receptor [1]; VCaP cells, Table 35): < 50 nM
Dmax (Androgen Receptor [1]; VCaP cells, Table 35): > 71%
AUC [2, 9]: 353 ng·h/mL
Cmax [2, 9]: 181 ng/mL
Compound: CC(=O)O[C@@H]1C[C@@H](C(=O)N[C@@H](C)c2ccc(-c3scnc3C)cc2)N(C(=O)[C@@H](NC(=O)COCCCCCNc2ccc(C(=O)N[C@H]3C(C)(C)[C@H](Oc4ccc(C#N)c(Cl)c4)C3(C)C)cc2)C(C)(C)C)C1 [Example 469]

Dmax (Androgen Receptor [1]; [7]): > 71%
DC50 (Androgen Receptor [1]; [8]): < 50 nM
GI50 (VCaP cells): ≤ 50 nM
AUC(0-t) [5]: 35100 ng·h/mL
Cmax [5]: 1900 ng/mL
Compound: Cc1ncsc1-c1ccc([C@H](C)NC(=O)[C@@H]2C[C@@H](O)CN2C(=O)[C@@H](NC(=O)COCCCCCNc2ccc(C(=O)N[C@H]3C(C)(C)[C@H](Oc4ccc(C#N)c(Cl)c4)C3(C)C)cc2)C(C)(C)C)cc1 [Example 174, (2S,4R)-1-[(2S)-3,3-dimethyl-2-[2-({5-[(4-{[trans-3-(3-chloro-4-cyanophenoxy)-2,2,4,4-tetramethylcyclobutyl]carbamoyl}phenyl)amino]pentyl}oxy)acetamido]butanoyl]-4-hydroxy-N-[(1S)-1-[4-(4-methyl-1,3-thiazol-5-yl)phenyl]ethyl]pyrrolidine-2-carboxamide]
